Entries after “also recorded” stand apart in the source; their conditions may differ. Read-outs that look alike come from different tables or passages of the source.
Assays:
[1] = target: T1, human kappa opioid receptor (hKOR) (Homo sapiens, UniProt P41145); assay: Kappa radioligand binding assay ([3H]diprenorphine, CHO cell membranes); settings: for Selectivity hMOR/hKOR: selectivity ratio calculated by dividing the hMOR Ki by the hKOR Ki
T1 construct: expressed in transfected cells; host or cells: CHO cells
Description: (§1) Kappa and Mu Radioligand Binding Assay:
(§2) Binding assays on membranes from CHO cells expressing human kappa or mu opioid receptors were performed according to standard procedures. Frozen cell paste was homogenized in 50 mM Tris HCl buffer (pH 7.4 @ 4 degrees C.) containing 2.0 mM MgCl2 using a Polytron and spun in a centrifuge at 40,000 g for ten minutes. The final pellet was resuspended in assay buffer (50 mM Tris HCl buffer, pH 7.4, containing 1 mM EDTA, 5 mM MgCl2). Incubations were initiated by the addition of membranes to 96-well plates containing test drugs and [^3H]diprenorphine (0.6 nM final concentration for kappa opioid receptor and 0.5 nM final concentration for mu) in a final volume of 250 μl. Non-specific binding was determined by radioligand binding in the presence of a saturating concentration of naltrexone (10 μM). After a one hour incubation period at room temperature, assay samples were rapidly filtered through PEI coated, GF/B fired Unifilter plates (PerkinElmer) and rinsed with ice-cold 50 mM Tris buffer (pH 7.4). Membrane bound [^3H]diprenorphine levels were determined by liquid scintillation counting of the filterplates in Ecolume scintillation fluid. The IC50 value (concentration at which 50% inhibition of specific binding occurs) was calculated using a logistic 4 parameter fit model of the concentration-response data. Ki values were calculated according to the Cheng Prusoff equation, Ki=IC50/(1+(L/Kd)), where L is the concentration of the radioligand used in the experiment and the Kd value is the dissociation constant for the radioligand (determined previously by saturation analysis).

[2] = target: T2, human mu opioid receptor (hMOR) (Homo sapiens, UniProt P35372); assay: Mu radioligand binding assay ([3H]diprenorphine, CHO cell membranes)
T2 construct: expressed in transfected cells; host or cells: CHO cells
Description: as §1
as §2, with “The IC50 value (concentration at which 50% inhibition of specific binding occurs) was calculated using a logistic 4 parameter fit model of the concentration-response data.” left out

[3] = In vitro intrinsic clearance in human liver microsomes; format: in vitro ADME
Description: Determination of In Vitro Intrinsic Clearance in Human Liver Microsomes:
Compounds were prepared as solutions in methanol. The final concentration of methanol in the incubation media was 0.2% (v/v). […] The total incubation volume was 1 mL. The reaction mixture was pre-warmed at 37° C. for 2 min before adding NADPH (1.2 mM). Aliquots (75 μL) of the reaction mixture at 0, 5, 10, 15, and 30 min were added to acetonitrile (200 μL) containing internal standard (terfenadine)(0.05 μg/mL), and the samples were centrifuged at 2500 g for 5 min prior to liquid chromatography/tandem mass spectrometry (LC/MS-MS) analysis of each compound using multiple reaction monitoring (MRM). For control experiments, NADPH was omitted from these incubations.
The microsomal half-life (t1/2) was obtained from a log-linear plot of the substrate depletion vs incubation time and was scaled to hepatic intrinsic clearance (CLint) using the following equation, in which the term t1/2 refers to the in vitro half-life: […]

major CYP450 isozymes = assay: CYP450 DDI cocktail assay (reversible inhibition, all isozymes together); format: in vitro ADME, human; settings: CYP450 DDI cocktail assay, isozymes inhibited in brackets
Description: Multi-Point Cocktail DDI IC50 Assay Conditions:
Standard marker activity substrates were incubated with pooled human liver microsomes (HL-MIX-102) in the presence of NADPH (1.2 mM) in 100 mM KH2PO4, pH 7.4 containing 3.3 mM MgCl2 at 37° C. The incubation volume was 0.1 mL, utilizing a 384-well plate format. The microsomal protein concentrations (0.1 mg/mL) and P450 concentration (0.035 μM) was used for each probe substrate at the following concentrations [tacrine (1A2) 2 uM; diclofenac (2C9) 5 μM; dextromethorphan (2D6) 5 μM; midazolam (3A4) 2 μM; taxol (2C8) 5 μM; S-mephenytoin (2C19) 40 μM]. Substrate concentrations were near Km values that had been previously determined and incubation times were selected based on determinations of reaction velocity linearity. Each test compound/prototypical inhibitors was tested at a concentration range of 0-30 μM in triplicate, in final vehicle solvent concentrations of 0.9% acetonitrile and 0.1% DMSO. Incubations were initiated with the addition of NADPH. At the end of the incubation period, termination solvent containing internal standard was added, the terminated incubation mixture was centrifuged to precipitate microsomal protein. Samples were directly injected on an HPLC-MS/MS system. A Biomek FX workstation was used for liquid handling and sample incubation.
Reversible CYP450 inhibitory potential for each compound was assessed using the CYP450 DDI cocktail assay, measuring the inhibition of the metabolism of a known probe substrate of each of the major CYP isozymes at 3 μM concentration.

kappa opioid receptor [4] = target: T3, kappa opioid receptor (Mus musculus, UniProt P33534); assay: In vivo receptor occupancy (displacement of [3H]GR103545 in brain); settings: subcutaneous dosing
T3 construct: from tissue; host or cells: brain of adult male C57BL/6J mice (in vivo)
Description: (§3) Adult male C576BL/J6 mice from Jackson Labs (Bar Harbor, Me.) were group housed on individually-vented cage racks, in environmentally-controlled animal quarters (light/dark-6:00 am/6:[…]) for a minimum of 7 days prior to use. For progressive ratio studies, mice were food-restricted to 80-85% of their body weight before testing began. All animal procedures were approved by the Pfizer Inc. IACUC and conducted in accordance with the NIH Guide for the Care and Use of Laboratory Animals.
In Vivo Receptor Occupancy
In vivo receptor occupancy was assessed in adult male C57BL6/J mice. Mice were administered increasing doses (0.001-32 mg/kg s.c.) 30 min prior to administration of the kappa opioid receptor ligand, [^3H]GR103545 (100 μCi/kg, intraorbital). Animals were euthanized 10 min later using cervical dislocation and the brains dissected. One hemisphere was stored at −40° C. for subsequent measurement of compound concentration, the other was homogenized in chilled Tris-HCl buffer (50 mM, pH 7.4; 1:10 w/v) for twenty seconds. Samples of brain homogenate were filtered through 0.3 to 0.5% PEI-soaked GF/B filters, and the filters washed twice with chilled buffer before radioactivity was counted overnight using a scintillation counter. Binding of the ligand in cerebellum was used to determine non-specific binding.

kappa opioid receptor [5] = target: T3, kappa opioid receptor; assay: Progressive ratio responding (reversal of spiradoline-induced deficit in motivation); format: in vivo; settings: co-administered with spiradoline, receptor occupancy measured in a separate group of animals
Description: as §3
Progressive Ratio Responding:
Motivation and food-reinforced operant behavior were assessed in the progressive ratio assay. Adult male C576BL/J6 mice were food-restricted to 80-85% of their body weight over a period of one week and kept in their home cages. Mice were trained to nose-poke for a food reward. […] Mice were assessed in a 60 minute session, where the number of rewards obtained was used as a surrogate of the level of motivation. Once mice had reached a stable level of responding, mice were dosed with the kappa opioid receptor agonist, spiradoline (3.2 mg/kg s.c.), to induce a deficit in motivation. Mice were co-administered increasing doses of the kappa opioid receptor antagonists (0.0032-3.2 mg/kg s.c.) to assess their ability to antagonize the spiradoline-induced deficit.

[6] = Table 19, geometric mean of 2-6 determinations unless otherwise indicated (Example 3: >=7), read-out: hKOR binding assay Ki
[7] = Table 20, radioligand binding, read-out: hKOR binding assay Ki
[8] = Table 19, geometric mean of 2-6 determinations unless otherwise indicated (Example 3: >=7), read-out: hMOR binding assay Ki
[9] = Table 20, radioligand binding, read-out: hMOR binding assay Ki

T3 sequence (P33534 whole entry): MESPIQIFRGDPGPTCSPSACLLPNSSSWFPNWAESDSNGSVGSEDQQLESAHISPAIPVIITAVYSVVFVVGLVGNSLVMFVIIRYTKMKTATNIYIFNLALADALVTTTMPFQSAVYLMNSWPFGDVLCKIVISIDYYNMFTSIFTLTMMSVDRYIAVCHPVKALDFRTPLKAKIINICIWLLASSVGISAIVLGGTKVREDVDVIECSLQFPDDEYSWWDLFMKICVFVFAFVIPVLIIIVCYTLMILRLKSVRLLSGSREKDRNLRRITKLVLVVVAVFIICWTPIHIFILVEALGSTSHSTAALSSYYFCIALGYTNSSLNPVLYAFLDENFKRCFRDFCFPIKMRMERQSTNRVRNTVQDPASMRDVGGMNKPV
T2 sequence (P35372 whole entry): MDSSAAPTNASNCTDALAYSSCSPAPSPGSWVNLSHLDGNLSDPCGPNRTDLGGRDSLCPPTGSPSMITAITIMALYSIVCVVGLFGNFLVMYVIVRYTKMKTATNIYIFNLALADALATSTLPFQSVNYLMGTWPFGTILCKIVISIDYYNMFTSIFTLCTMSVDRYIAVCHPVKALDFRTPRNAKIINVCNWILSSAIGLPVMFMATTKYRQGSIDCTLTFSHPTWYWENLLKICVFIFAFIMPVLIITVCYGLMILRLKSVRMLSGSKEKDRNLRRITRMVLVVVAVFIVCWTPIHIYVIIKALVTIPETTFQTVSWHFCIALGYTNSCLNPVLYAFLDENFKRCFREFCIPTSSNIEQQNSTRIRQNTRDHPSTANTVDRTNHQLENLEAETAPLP
T1 sequence (P41145 whole entry): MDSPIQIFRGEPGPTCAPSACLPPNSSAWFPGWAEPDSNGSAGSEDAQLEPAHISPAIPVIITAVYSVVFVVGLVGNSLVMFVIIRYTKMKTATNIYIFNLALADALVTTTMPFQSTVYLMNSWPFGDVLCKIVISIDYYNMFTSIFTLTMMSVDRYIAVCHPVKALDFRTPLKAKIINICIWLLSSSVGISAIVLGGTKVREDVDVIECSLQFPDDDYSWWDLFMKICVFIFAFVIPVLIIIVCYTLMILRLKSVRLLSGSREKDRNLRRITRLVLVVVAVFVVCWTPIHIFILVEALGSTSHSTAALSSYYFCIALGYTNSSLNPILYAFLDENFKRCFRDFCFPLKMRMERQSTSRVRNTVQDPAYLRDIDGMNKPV

SMILES	Ki [1, 6]	Ki [1, 7]	Selectivity hMOR/hKOR [1]	Ki [2, 8]	Ki [2, 9]	hepatic / metabolic clearance in human liver microsomes, in words [3]	CLint scaled at 2 μM ([3]; human, pH 7.4, human liver microsomal intrinsic clearance, read-out: HLM CLint)	>25% reversible inhibition of CYP activity at 3 μM (CYP) (major CYP450 isozymes)	KOR potency, in words [1]	selectivity for KOR over MOR, in words [1]	displacement of KOR agonist radioligand binding in the brain, in words (kappa opioid receptor [4])	IC50 (kappa opioid receptor [4]; displacement of [3H]GR103545, unbound brain concentration, read-out: Mouse KOR IVRO unbound brain IC50)	% KOR IVRO to achieve 50% PR reversal (kappa opioid receptor [5])	Ki ([1]; radioligand binding, [3H]diprenorphine, read-out: hKOR Ki)	Ki ([2]; radioligand binding, [3H]diprenorphine, read-out: hMOR Ki)
COc1cc(C2CCCN2Cc2ccc(Oc3ccc(C(N)=O)cc3)cc2)n(C)n1 (single isomer, unassigned) [Example 46, 4-(4-{[2-(3-methoxy-1-methyl-1H-pyrazol-5-yl)pyrrolidin-1-yl]methyl}phenoxy)benzamide]	0.657 nM	0.657 nM	38	25 nM	25 nM	higher metabolic clearance	105 mL/min/kg	no	–	–	–	–	–	–	–
Cc1cc(C2CCCN2Cc2ccc(Oc3ccc(C(N)=O)cc3F)cc2)on1 (centres unmarked) [Example 42]	54.7 nM	54.7 nM	5.8	318 nM	318 nM	–	–	–	low KOR potency	–	–	–	–	–	–
Cc1cnn(C)c1C1CCCN1Cc1ccc(Oc2ccc(C(N)=O)cc2F)cc1 (centres unmarked) [Example 43]	16.8 nM	16.8 nM	3	56.2 nM	56.2 nM	–	–	–	–	unacceptably lower levels of selectivity (MOR/KOR)	–	–	–	–	–
Cc1cc(C2CCCN2Cc2ccc(Oc3ccc(C(N)=O)cc3F)cc2)nn1C (centres unmarked) [Example 44]	14.5 nM	14.5 nM	9	127 nM	127 nM	–	–	–	–	unacceptably lower levels of selectivity (MOR/KOR)	–	–	–	–	–
Cc1cc([C@@H]2CCCN2Cc2ccc(Oc3ccc(C(N)=O)cc3F)cc2)n(C)n1 [Example 45, 4-(4-{[(2S)-2-(1,3-dimethyl-1H-pyrazol-5-yl)pyrrolidin-1-yl]methyl}phenoxy)-3-fluorobenzamide]	1.7 nM	1.7 nM	64	108 nM	108 nM	–	–	–	excellent potency	excellent potency and selectivity over MOR; also recorded: more selective than the phenyl examples, Comparators A and B	displaced KOR agonist radioligand ([^3H]GR103545) binding in the brain in an exposure-dependent manner	0.25 nM	85%	–	–
COc1nn(C)cc1C1CC(F)CN1Cc1ccc(Oc2ccc(C(N)=O)cc2)cc1 (stereo not drawn) [isomer of Example 24]	–	–	–	–	–	–	–	–	–	–	–	–	–	36.3 nM	1210 nM

Source: patent US10316021B2, “Heteroarylphenoxy benzamide kappa opioid ligands” (Pfizer Inc., priority 2016, dated 2019)
